The values below come from PubChem BioAssay (NCI).

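Five concentrations, 48 hours, 96-well plates. GI50 = concentration required for 50% inhibition of growth. TGI denotes the concentration required for complete inhibition of growth.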 Where only a bound is given, the exact number is not on record here.

The test system of the first assay is HOP-92 NSCLC. Kind of assay: NCI-60 cell line screen, 48 h.
As to `N=C(N)SCc1cccc(-c2nc3ccccc3c(=O)o2)c1`, the TGI is over 100 µM.
Regarding `Cc1cc2c(cc1Cl)SC(=Nc1ccc(Cl)cc1)N(S(=O)(=O)c1ccccc1)S2(=O)=O`, the GI50 is 5.39 µM and the TGI was 26.1 µM.
In the same order, the values of `Oc1cn(-c2ccc(Cl)cc2)nc1-c1n[nH]c(=S)n1C1CCCCC1` are 38.7 µM and over 100 µM.
For the molecule `COc1ccc(Nc2c3ccccc3nc3occ(Cl)c23)cc1`, the GI50 is 0.0165 µM and the TGI worked out at 7.17 µM.
As for `Cc1cc[c-]cc1.Fc1c[c-]c(-c2ccccn2)c(F)c1.[Pt+2].c1ccc(P(C[PH+](c2ccccc2)c2ccccc2)c2ccccc2)cc1`, the GI50 was 1.57 µM and the TGI is 4.97 µM.
`C=C1C(=O)O[C@H]2/C=C(/C)C3=CC(=O)[C@@](C)(C[C@@H](OC(=O)/C(C)=C\C)C12)O3` (some centres undefined) yielded a TGI of 2.07 µM.
`O=C(CSC(c1ccccc1)c1ccccc1)N/N=C/c1ccc(Cl)cc1Cl`: the GI50 was 31.1 µM and the TGI came to 83.4 µM.

For a further assay, the system named is NCI-H23 lung. Kind of assay: NCI-60 cell line screen, 48 h.
`CN(CCCNC(=O)Cc1ccc2ccc3cccc4ccc1c2c34)CCCNc1cc(-c2ccc3ccccc3c2)nc2ccccc12`: the GI50 is 1.68 µM and the TGI was 3.18 µM.
In the same order, the values of `CCc1ccccc1NC(=O)c1sc2nc3c(cc2c1N)C(=O)CCC3` are 0.711 µM and over 100 µM.
In the same order, the values of `C[C@]12CC[C@@H]3c4ccc(O)cc4CC[C@H]3[C@@H]1CC[C@@H]2NS(=O)(=O)c1cccc(F)c1` are 3.19 µM and 13.5 µM.
In the same order, the values of `Cc1cc(S(=O)(=O)N/N=C(\Sc2cc(Cl)c(C)cc2S(N)(=O)=O)c2ccc(Cl)cc2)c(Cl)cc1Cl` are 26.7 µM and 67.9 µM.
For `CC(=O)/C=C/c1ccc(C#Cc2ccccc2)s1`, the GI50 is 14.4 µM and the TGI stood at 27.4 µM.
Molecule `CC(C)OC(=O)NNc1cc(Cl)ccc1Cl` had a TGI of over 100 µM.
For the molecule `Cc1cc(C2CC(O)C(CO)O2)cc2c(=O)[nH]c(N)nc12` (centres undefined), the GI50 is over 100 µM and the TGI was over 100 µM.
For the molecule `COc1cc2c(cc1O)C1Cc3ccc(OC)c(O)c3C(C2)N1C` (centres undefined), the TGI was over 100 µM.
On the same count and under the same terms, under `COc1ccc2c(c1)[C@@]13CCCC[C@H]1[C@@H](C2)N(C)CC3=O` stands 31.8 µM.
`COc1cccc(/C(COc2ccc3c(c2)oc(=O)c2cc(OC)ccc23)=N/O)c1`: the GI50 was 33.4 µM and the TGI was over 100 µM.
In the case of `N=C(N)SCc1cccc(-c2nc3ccccc3c(=O)o2)c1`, the TGI was over 100 µM.
For the molecule `Cc1cc2c(cc1Cl)SC(=Nc1ccc(Cl)cc1)N(S(=O)(=O)c1ccccc1)S2(=O)=O`, the GI50 was 1.55 µM and the TGI was 5.96 µM.
In the same order, the values of `Oc1cn(-c2ccc(Cl)cc2)nc1-c1n[nH]c(=S)n1C1CCCCC1` are 0.322 µM and 1.98 µM.
The like results for `COc1ccc(Nc2c3ccccc3nc3occ(Cl)c23)cc1` were, in that order, 0.0549 µM and 28.8 µM.
The like results for `Cn1cc(C2=C(c3cn(CCCCCN)c4ccccc34)C(=O)NC2=O)c2ccccc21` were, in that order, 9.98 µM and over 25 µM.
As for `Cc1cc[c-]cc1.Fc1c[c-]c(-c2ccccn2)c(F)c1.[Pt+2].c1ccc(P(C[PH+](c2ccccc2)c2ccccc2)c2ccccc2)cc1`, the GI50 is 2.21 µM and the TGI was 8.67 µM.
Consider `C=C1C(=O)O[C@H]2/C=C(/C)C3=CC(=O)[C@@](C)(C[C@@H](OC(=O)/C(C)=C\C)C12)O3` (some centres undefined), for which the TGI was 10.3 µM.
In the case of `O=C(CSC(c1ccccc1)c1ccccc1)N/N=C/c1ccc(Cl)cc1Cl`, the GI50 is 21.4 µM and the TGI came to 56.9 µM.

For another assay, the system named is RXF 393 renal. In words: NCI-60 cell line screen, 48 h.
On to `CCc1ccccc1NC(=O)c1sc2nc3c(cc2c1N)C(=O)CCC3`, for which the GI50 is 0.191 µM and the TGI amounted to 0.852 µM.
In the same order, the values of `C[C@]12CC[C@@H]3c4ccc(O)cc4CC[C@H]3[C@@H]1CC[C@@H]2NS(=O)(=O)c1cccc(F)c1` are 2.42 µM and 7.4 µM.
The like results for `Cc1cc(S(=O)(=O)N/N=C(\Sc2cc(Cl)c(C)cc2S(N)(=O)=O)c2ccc(Cl)cc2)c(Cl)cc1Cl` were, in that order, 54.8 µM and over 100 µM.
The like results for `CC(=O)/C=C/c1ccc(C#Cc2ccccc2)s1` were, in that order, 16.2 µM and 33 µM.
On to `Cc1cc(C2CC(O)C(CO)O2)cc2c(=O)[nH]c(N)nc12` (centres undefined), for which the GI50 is over 100 µM and the TGI is over 100 µM.
For the molecule `COc1cc2c(cc1O)C1Cc3ccc(OC)c(O)c3C(C2)N1C` (centres undefined), the TGI is over 100 µM.
Molecule `COc1ccc2c(c1)[C@@]13CCCC[C@H]1[C@@H](C2)N(C)CC3=O` yielded a TGI of 29.1 µM.
With `COc1cccc(/C(COc2ccc3c(c2)oc(=O)c2cc(OC)ccc23)=N/O)c1`, the GI50 is over 100 µM and the TGI was over 100 µM.
In turn, `N=C(N)SCc1cccc(-c2nc3ccccc3c(=O)o2)c1` displayed a TGI of over 100 µM.
As for `Cc1cc2c(cc1Cl)SC(=Nc1ccc(Cl)cc1)N(S(=O)(=O)c1ccccc1)S2(=O)=O`, the GI50 was 17.2 µM and the TGI turned out to be 48.2 µM.
In the same order, the values of `Oc1cn(-c2ccc(Cl)cc2)nc1-c1n[nH]c(=S)n1C1CCCCC1` are over 24.6 µM and over 100 µM.
In the same order, the values of `Cn1cc(C2=C(c3cn(CCCCCN)c4ccccc34)C(=O)NC2=O)c2ccccc21` are 3.66 µM and 9.47 µM.
In the same order, the values of `Cc1cc[c-]cc1.Fc1c[c-]c(-c2ccccn2)c(F)c1.[Pt+2].c1ccc(P(C[PH+](c2ccccc2)c2ccccc2)c2ccccc2)cc1` are 2.45 µM and 8.64 µM.
Regarding `C=C1C(=O)O[C@H]2/C=C(/C)C3=CC(=O)[C@@](C)(C[C@@H](OC(=O)/C(C)=C\C)C12)O3` (some centres undefined), the TGI stood at 1.5 µM.
Regarding `O=C(CSC(c1ccccc1)c1ccccc1)N/N=C/c1ccc(Cl)cc1Cl`, the GI50 was 34.4 µM and the TGI amounted to 89.1 µM.
